The text below walks through data of PubChem BioAssay (NCI).

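Assay format: 96-well plates, 48-hour exposure. Abbreviation: GI50, concentration required for 50% inhibition of growth. TGI: total growth inhibition.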 Some results are limits rather than exact numbers.

What all share (assay): growth of human tumour cells (NCI), 48 h
The test system of test [1] is A549 NSCLC.
Test [2] concerns U251 CNS.
In test [3] the test system is COLO 205 colon.
The subject of test [4] is MDA-MB-231 breast.
Test [5] relates to HOP-92 NSCLC.
Test [6] relates to SN12C renal.
Test [7] deals with T-47D breast.
Test [8] relates to K-562 leukemia.
For test [9], the system named is NCI/ADR-RES ovarian.
Test [10] concerns HCC-2998 colon.

`Nc1ncn(C2CC(O)C(CO)O2)c(=O)n1` (stereo not given): the TGI in test [1] is > 375 µM; in [2], > 307 µM; in test [3] it was > 298 µM; in test [4] it was > 343 µM; in test [5], > 375 µM; in [6], > 375 µM. The TGI in test [7] was > 299 µM; in test [8], > 332 µM; in test [9] it was > 375 µM; in [10] it was > 375 µM.
For the molecule `CS(=O)(=O)c1cc(=O)c2ccccc2s1`, the TGI turned out to be 35.7 µM in test [1]; 37.6 µM in test [2]; 3.26 µM in test [3]; 31.4 µM in [4]; 3.71 µM in test [5]; 22.2 µM in [6]. Also, the TGI in test [7] was 9.41 µM; in [8], 3 µM; in test [9], 38.8 µM; in test [10], 30.5 µM.
Regarding `COc1cc2c(c(OC)c1OC)C(=O)[C@@H]1c3ccc([N+](=O)[O-])cc3C(=O)N(CCCBr)[C@H]21`, the GI50 was 12.3 µM in test [1]; 23.3 µM in test [2]; 9.86 µM in [3]; 2.99 µM in test [4]; 16.1 µM in [5]; 7.67 µM in test [6]. For the same molecule, the GI50 in test [7] is 7.88 µM; in test [8], 30.6 µM; in [9] it was 11 µM; in test [10], 1.17 µM. Besides, the TGI in test [1] is 45.5 µM; in test [2], > 100 µM; in [3], > 100 µM; in test [4], 25.3 µM; in test [5], 78.6 µM; in test [6], 29.9 µM. For the same molecule, the TGI in test [7] is > 100 µM; in test [8] it was > 100 µM; in test [9] it was 44.9 µM; in test [10] it was 7.51 µM.
Regarding `Fc1ccc(-c2nn3ncccc3c2-c2ccnc(Nc3ccc4c(c3)OCCO4)n2)cc1`, the GI50 in test [1] is 2.71 µM; in test [2] it was 7.72 µM; in test [3] it was 1.42 µM; in [4], 1.22 µM; in test [5] it was 2.61 µM; in [6] it was 4.68 µM. Also, the GI50 in test [7] is 3.95 µM; in test [8] it was 2.68 µM; in test [9], 5.73 µM; in test [10], 4.81 µM. For the same molecule, the TGI is > 25 µM in test [1]; > 25 µM in [2]; > 25 µM in test [3]; 6.01 µM in test [4]; 18.8 µM in [5]; > 25 µM in test [6]. Besides, the TGI was 17.9 µM in test [7], > 25 µM in test [8], > 25 µM in test [9] and 10.1 µM in test [10].
Take `O=C(/C=C\n1cnc(-c2cc(C(F)(F)F)cc(C(F)(F)F)c2)n1)NNc1cnccn1`: the GI50 in test [1] is 0.0785 µM; in test [2] it was 0.0511 µM; in test [3] it was 0.0515 µM; in test [4], 0.0577 µM; in [5], 0.094 µM; in [6], 0.356 µM. The GI50 in test [7] is 0.143 µM; in test [8], 0.0594 µM; in test [9], 0.0933 µM; in test [10], 0.112 µM. The TGI in test [1] was found to be 19 µM; in [2] it was 12.4 µM; in test [3], 5.28 µM; in test [4] it was 14.8 µM; in test [5], 9.21 µM; in test [6], 15.4 µM. Moreover, the TGI in test [7] was 15.7 µM; in [8], > 38.3 µM; in test [9] it was 27.1 µM; in test [10], 1.93 µM.
In the case of `COc1cc2c3c(n(CCNCCCNCCn4c5c(c6cc(OC)c(OC)cc6c4=O)C(=O)c4ccccc4-5)c(=O)c2cc1OC)-c1ccccc1C3=O`, the GI50 in [1] was 0.187 µM; in test [2] it was 0.0733 µM; in test [3] it was 0.121 µM; in [4] it was 0.178 µM; in [5], 0.0656 µM; in test [6], < 0.0166 µM. In addition, the GI50 in [7] is 2.32 µM; in test [8], 0.103 µM; in test [9], > 100 µM; in [10], 0.0685 µM. Besides, the TGI in test [1] is 24.2 µM; in test [2], 1.49 µM; in [3] it was 1.01 µM; in test [4], 2.1 µM; in test [5], 0.556 µM; in test [6], 1.59 µM. In addition, the TGI was > 34.7 µM in test [7], 1.48 µM in [8], > 100 µM in [9] and 0.978 µM in test [10].
On to `C/C(=N\Nc1ccc(Cl)cn1)c1ccccn1`, for which the GI50 in [1] was 0.364 µM; in test [2], 0.218 µM; in test [3], 0.0227 µM; in test [4] it was 0.0652 µM; in test [5], 0.134 µM; in test [6], 0.134 µM. Also, the GI50 in test [7] is 0.0372 µM; in [8] it was 0.029 µM; in test [9] it was 0.037 µM; in test [10], 0.554 µM. Besides, the TGI in [1] is > 100 µM; in [2], > 100 µM; in test [3], 36.7 µM; in test [4], > 100 µM; in test [5] it was 33.9 µM; in test [6], > 100 µM. The TGI in test [7] is > 38.8 µM; in [8] it was > 100 µM; in [9] it was > 31.6 µM; in [10] it was 68.2 µM.
Regarding `CCN(CC)CCCC(C)Nc1cnc(C(=O)Nc2cccc3ccc(OC)nc23)cn1` (stereo not given), the GI50 in [1] was 2.6 µM; in test [2], 1.81 µM; in test [3], 1.77 µM; in [4] it was 1.73 µM; in [5] it was 6.93 µM; in test [6], 1.77 µM. In addition, the GI50 is 1.85 µM in [7], 1.8 µM in test [8], 2.62 µM in test [9] and 1.82 µM in test [10]. Moreover, the TGI in [1] was 7.02 µM; in [2] it was 3.52 µM; in test [3] it was 3.46 µM; in [4], 3.45 µM; in test [5], 21.9 µM; in [6], 3.72 µM. Besides, the TGI in [7] stood at 3.95 µM; in test [8], 6.2 µM; in test [9] it was 7.95 µM; in [10], 3.46 µM.
